Experimental data taken from patent US12577584B2, “Non-HLA matched humanized NSG mouse model with patient-derived xenograft” (The Jackson Laboratory, priority 2015, dated 2026).
“Also recorded” adds a separate entry of the source.

Key:
breast cancer BR1126 PDX = assay: Tumor growth of PD-L1+ TNBC BR1126 breast cancer PDX in non-HLA matched Hu-CD34 NSG mice; type: in vivo, mouse; conditions: for tumor growth compared to the vehicle control: growth curves over 21 days, cisplatin i.v. about 2 mg/kg Q7dx3, Keytruda i.p. about 5-10 mg/kg Q5dx4
Description: Specifically, humanized NSG mice were engrafted with 5×10^6 of non-HLA matched PD-L1-positive breast cancer cell line BR1126 cells per mouse via s.c. inoculation. This can be done with the presence of matrigel. About 56.9% of the BR1126 cells expressed PD-L1.
(§1) Tumor growth curves over 21 days were obtained for a negative control/vehicle group, and two treatment groups using cisplatin and pembrolizumab (Keytruda), respectively, against the BR1126 PDX. Specifically, cisplatin was administered i.v. at a dose of about 2 mg/kg body weight, Q7d×3 (every 7 days, 3 total doses). Pembrolizumab (Keytruda) was administered i.p. at a dose of about 5-10 mg/kg body weight, Q5d×4 (every 5 days, 4 total doses). Vehicle (Saline) was administered i.p., Q5d×4.
Tumors from the Keytruda-treated mice were collected at the end of the study and examined for lymphocyte infiltration.

[1] = tested on: breast cancer cell line MDA-MB-231; assay: Tumor growth of PD-L1+ MDA-MB-231 breast cancer model in non-HLA matched Hu-CD34 NSG mice; type: in vivo, mouse; conditions: for tumor growth of MDA-MB-231 tumors: growth curves over 21 days, cisplatin i.v. about 2 mg/kg Q7dx2
Description: First, to determine if the checkpoint inhibitor pembrolizumab (Keytruda) is efficacious in the subject non-HLA matched PDX humanized NSG model, a PDX huNSG model was established according to the methods of the invention. […] This cell line expresses very high levels of PD-L1 on the tumor cell surface that can bind to PD-1 on T-cells and induce anergy—about 94.3% of the MDA-MB-231 cells expressed PD-L1. The tumor-engrafted humanized NSG mice were then treated either with vehicle, Cisplatin, or Prembrolizumab (Keytruda).
as §1, with “MDA-MB-231” for “BR1126”, “Q7d×2” for “Q7d×3”, “2” for “3”
At the termination of the growth study, peripheral blood of the experimental mice were collected and assayed for human CD19^+ B cells and human CD4^+ and CD8^+ T-cells.
Tumors were also collected and assayed for human CD4^+ and CD8^+ infiltrating T-cells.

[2] = tested on: CD45+CD8+ infiltrating T lymphocytes in PDX tumor samples; assay: Immuno-staining of treated PDX tumor samples for CD45+CD8+ infiltrating T lymphocytes; type: in vivo, mouse; conditions: compared to chemotherapy alone
Description: In a similar experiment, immuno-staining was conducted on PDX tumor samples treated by chemotherapy alone, anti-PD1 agent Keytruda, and anti-CTLA4 agent ipilimumab, for the presence of CD45^+CD8^+ infiltrating T lymphocytes.

lung cancer LG1306 PDX = assay: Tumor growth of PD-L1+ LG1306 lung cancer PDX in non-HLA matched Hu-CD34 NSG mice; type: in vivo, mouse
Description: Specifically, humanized NSG mice were engrafted with 5×10^6 of non-HLA matched PD-L1-positive PDX lung cancer cell line LG1306 per mouse. About 89.1% of the LG1306 cells expressed PD-L1.
Tumor growth curves over 24 days were obtained for a negative control/vehicle group, and two treatment groups using pembrolizumab (Keytruda), with or without the anti-mitotic chemotherapeutic agent Decotaxol, against the LG1306 PDX. Specifically, Decetaxol, when present, was administered i.v. at a dose of about 10 mg/kg body weight, Q7d×4 (every 7 days, 4 total doses). Pembrolizumab (Keytruda) was administered i.p. at a dose of about 5 mg/kg body weight, Q5d×6 (every 5 days, 6 total doses). Vehicle (Saline) was administered i.p., Q5d×6.

[3] = tested on: colon cancer CN1572P5 PDX; assay: Tumor growth of colon cancer CN1572P5 PDX in non-HLA matched Hu-CD34 NSG mice; type: in vivo, mouse; conditions: tumor growth curves over 21 days; 5-FU i.v. about 20 mg/kg Q7dx2; Avastin i.p. about 10 mg/kg twice a week, 5 doses
Description: To test whether the subject Hu-CD34 NSG™ mice with non-HLA matched PDX can be used to evaluate drug efficacy against the PDX, using clinically relevant standard-of-care (SOC) treatments, tumor growth curves over 21 days were obtained for a negative control/vehicle group, and two treatment groups using 5-FU and Avastin, respectively, against the colon cancer CN1572P5 PDX. Specifically, 5-FU was administered i.v. at a dose of about 20 mg/kg body weight, Q7d×2 (every 7 days, 2 total doses). Avastin was administered i.p. at a dose of about 10 mg/kg body weight, twice a week, 5 total doses. Vehicle (D5W) was administered i.v., Q7d×3.

[4] = tested on: non-small-cell lung cancer, melanoma, and renal-cell cancer; conditions: 296 patients; cited from earlier work
[5] = Keytruda i.p. about 5-10 mg/kg Q5dx4

## N.N.[Cl][Pt][Cl] [Cisplatin, cisplatin]
Breast cancer BR1126 PDX
  tumor growth compared to the vehicle control: significantly reduced tumor growth
[1]; [5]
  tumor growth of MDA-MB-231 tumors: only marginally reduced the growth rate

## Keytruda: anti-PD-1 antibody drug; highly selective, humanized IgG4-kappa monoclonal antibody against PD-1
Breast cancer BR1126 PDX
  tumor growth compared to the vehicle control: significantly reduced tumor growth
Breast cancer BR1126 PDX; tumors collected at the end of the study
  tumor lymphocyte infiltration compared to the vehicle treated mice: did not increase tumor infiltration
[2]
  presence of CD45+CD8+ infiltrating T lymphocytes in PDX tumor samples: strong presence
[1]; [5]
  time after start of treatment to significant tumor growth delay: ≤ 2 weeks
  tumor growth of MDA-MB-231 tumors: delayed tumor growth significantly
[1]; at termination of the growth study
  human T and B cells in peripheral blood and infiltrating T cells (TILs) in tumors versus other treatment groups: absence of additional TILs
Lung cancer LG1306 PDX; Keytruda alone
  mice not responding: one of 10
Lung cancer LG1306 PDX; growth curves over 24 days, Keytruda i.p. about 5 mg/kg Q5dx6, Docetaxel i.v. about 10 mg/kg Q7dx4, all mice
  tumor growth of LG1306 PDX compared to vehicle-treated controls: reduced growth; also recorded: effective
Lung cancer LG1306 PDX; one Keytruda non-responder excluded
  tumor growth, non-responding mouse taken out of the calculations: significant decrease in tumor growth

## Avastin: clinically relevant standard-of-care (SOC) anti-cancer drug
[3]
  efficacy against the non-HLA matched colon cancer PDX (tumor volume): effective

## ipilimumab: anti-CTLA4 agent; FDA-approved CTLA-4 inhibitor for treating melanoma
[2]
  presence of CD45+CD8+ infiltrating T lymphocytes in PDX tumor samples: strong presence

## nivolumab: fully human IgG4 monoclonal antibody against PD-1
[4]
  clinical response: complete or partial responses

## O=c1[nH]cc(F)c(=O)[nH]1 [5-FU]
[3]
  efficacy against the non-HLA matched colon cancer PDX (tumor volume): effective
